Values after ≈ are worked out from the molar mass of the structure shown. “Also recorded” adds a separate entry of the source. Read-outs that look alike come from different tables or passages of the source.

We go through 9 compounds from paper PMC4521081, “Thiophenecarboxamide Derivatives Activated by EthA Kill Mycobacterium tuberculosis by Inhibiting the CTP Synthetase PyrG” (Chemistry & Biology, 2015).

One data set concerns the target wild-type PyrG (Mycobacterium tuberculosis, UniProt P9WHK7). Format: biochemical, M. tuberculosis. Also on record: % inhibition of wild-type PyrG: dose or concentration left out as unconfirmed.
The subject of data set [1] is M. tuberculosis H37Rv. The data set is described as follows: microbe, parasite or virus in culture. Format: cell-based.
Data set [2] has as its target T1, EthA (Mycobacterium tuberculosis, UniProt P9WNF9). The conditions noted are these: cited from earlier work; for Km: read-out: Km (EthA substrate).
The target of another data set is PyrG (Mycobacterium tuberculosis, UniProt P9WHK7). It counts as biochemical, M. tuberculosis.
Sequence of PyrG (P9WHK7 whole entry): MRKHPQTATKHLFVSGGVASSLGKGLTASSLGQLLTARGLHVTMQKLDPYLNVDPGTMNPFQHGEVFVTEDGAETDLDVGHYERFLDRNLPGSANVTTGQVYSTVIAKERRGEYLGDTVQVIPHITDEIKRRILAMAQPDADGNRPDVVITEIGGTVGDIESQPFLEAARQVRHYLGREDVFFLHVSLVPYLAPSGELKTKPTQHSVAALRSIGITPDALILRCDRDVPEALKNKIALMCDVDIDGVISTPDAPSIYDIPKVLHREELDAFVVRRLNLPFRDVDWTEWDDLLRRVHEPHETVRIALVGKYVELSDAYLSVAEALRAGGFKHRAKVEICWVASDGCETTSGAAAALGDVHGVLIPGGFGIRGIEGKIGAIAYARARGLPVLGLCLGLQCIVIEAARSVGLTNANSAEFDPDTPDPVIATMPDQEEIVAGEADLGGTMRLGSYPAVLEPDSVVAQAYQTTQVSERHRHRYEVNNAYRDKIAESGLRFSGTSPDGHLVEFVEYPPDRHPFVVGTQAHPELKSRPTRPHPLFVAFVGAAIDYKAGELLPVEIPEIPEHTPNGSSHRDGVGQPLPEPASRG
For data set [3], the target named is T1, EthA. Format: biochemical, M. tuberculosis.
The subject of another data set is RAW 264.7. The conditions noted are these: at concentrations below 40 μg/ml.
For another data set, the system named is HepG2. As to conditions: HepG2, at concentrations below 40 μg/ml.
The next data set concerns Huh7. As to conditions: Huh7, at concentrations below 40 μg/ml.
For another data set, the system named is A549. The conditions noted are these: A549, at concentrations below 40 μg/ml.
The subject of data set [4] is intracellular M. tuberculosis H37Rv. The data set is described as follows: microbe, parasite or virus in culture. It counts as cell-based. The conditions noted are these: Mycobacterium tuberculosis; for IC50: read-out: Intracellular IC50; for IC90: read-out: Intracellular IC90.
The subject of data set [5] is non-replicating M. tuberculosis ss18b. Description: microbe, parasite or virus in culture. The conditions noted are these: Mycobacterium tuberculosis. Format: cell-based.
For data set [6], the system named is M. tuberculosis H37Rv. It counts as cell-based, Mycobacterium tuberculosis.
The next data set has as its system M. tuberculosis H37Ra. Description: MIC against M. tuberculosis H37Ra. Format: cell-based, Mycobacterium tuberculosis.
The mark [7] stands for this setting: Mycobacterium tuberculosis, H37RV, Figure 5, H37Rv, read-out: MIC.
Setting [8] is: Mycobacterium tuberculosis, H37RV, Table 1, replicating, read-out: H37Rv MIC.
Setting [9] is: Mycobacterium tuberculosis, H37RV, Table 2, strain H37Rv, read-out: MIC.
The mark [10] stands for this setting: Mycobacterium tuberculosis, H37RV, Table S2, H37Rv, read-out: MIC.
Where [11] appears, read: Mycobacterium tuberculosis, H37RV, Table S4, H37Rv, read-out: MIC.

Sequence of wild-type PyrG (P9WHK7 whole entry): as above
T1 sequence (P9WNF9 whole entry): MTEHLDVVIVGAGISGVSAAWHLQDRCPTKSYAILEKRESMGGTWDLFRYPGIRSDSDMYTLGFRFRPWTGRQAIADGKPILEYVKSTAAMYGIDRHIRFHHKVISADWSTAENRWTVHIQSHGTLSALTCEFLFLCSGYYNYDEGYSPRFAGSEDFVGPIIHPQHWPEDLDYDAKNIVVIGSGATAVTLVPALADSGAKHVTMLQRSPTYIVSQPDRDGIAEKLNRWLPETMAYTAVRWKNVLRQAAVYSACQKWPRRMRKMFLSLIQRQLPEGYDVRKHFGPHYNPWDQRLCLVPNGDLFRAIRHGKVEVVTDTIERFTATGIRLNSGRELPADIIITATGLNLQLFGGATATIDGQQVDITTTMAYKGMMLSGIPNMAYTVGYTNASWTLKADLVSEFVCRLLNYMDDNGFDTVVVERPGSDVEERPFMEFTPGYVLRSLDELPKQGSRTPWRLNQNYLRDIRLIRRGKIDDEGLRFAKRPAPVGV

Take `O=C(CCc1ccccc1)NC(=O)Nc1ccc(N2CCCCC2)cc1` [3-phenyl-N-[(4-piperidin-1-ylphenyl)carbamoyl]propanamide]: the “effect on PyrG enzymatic activity” value on wild-type PyrG is “no effect”.

As a reminder, the Km is the substrate concentration at which the rate is half of its maximum. In the data set with M. tuberculosis H37Rv [1] (Mycobacterium tuberculosis, H37RV), `CCc1cc(C(N)=S)ccn1` [ETH, ethionamide, reference compound] yielded an MIC of 1 µg/mL (≈ 6.02 µM). The Michaelis constant (Km) on EthA [2] was 340 µM.

Turning to `Cc1ccc(C(=O)Nc2ccc([N+](=O)[O-])cc2)[s+]1[O-]` (centres unmarked) [M2], the “effect on PyrG enzymatic activity” value on wild-type PyrG is given as “inhibit”.

In general, IC50 refers to the point on the concentration scale where inhibition reaches its midpoint. The term IC90 denotes the point of the concentration-response curve where the effect stands at 90%. Turning to `O=C(CCc1ccccc1)NC(=S)Nc1ccc(N2CCCCC2)cc1` [compound 7904688, 3-phenyl-N-[(4-piperidin-1-ylphenyl)carbamothioyl]propanamide], the “loss of PyrG activity” value on PyrG was “about 80%”. The “higher affinity for EthA than ETH” value at EthA [3] is approximately 10 fold. Moreover, the cytotoxicity result with RAW 264.7, in the data set with HepG2, in the data set with Huh7 and in the data set on A549 was “not cytotoxic” throughout. The “effect on wild-type PyrG” value at wild-type PyrG is “ineffective”. Also, the MIC with M. tuberculosis H37Rv [1] (setting [7]), in the data set with M. tuberculosis H37Rv [1] (setting [8]) and with M. tuberculosis H37Rv [1] (setting [9]) was 0.5 µg/mL (≈ 1.36 µM) each time. The 50% inhibitory concentration (IC50) in [4] stood at 0.175 µg/mL (≈ 0.476 µM); in data set [5], 2.5 µg/mL (≈ 6.8 µM). Moreover, the IC90 turned out to be 0.625 µg/mL (≈ 1.7 µM) in [4] and 20 µg/mL (≈ 54.4 µM) in data set [5].

By melting point is commonly meant the temperature of the solid-liquid transition. Take `Cc1ccc(C(=O)Nc2ccc([N+](=O)[O-])cc2)s1` [compound 7947882, 5-methyl-N-(4-nitrophenyl)thiophene-2-carboxamide]: the melting point was 178 to 180 °C. Also, the “time in which PyrG lost full activity” value at PyrG is not above 4 h. In addition, the “higher affinity for EthA than ETH” value at EthA [3] is approximately 10 fold. In the data set with RAW 264.7, the cytotoxicity entry is “not cytotoxic”. Besides, the “effect on wild-type PyrG” value at wild-type PyrG was “ineffective”. The “abundance of nucleotide intermediates” value in the data set on M. tuberculosis H37Rv [6] is on record as “substantial increase”. Moreover, the cytotoxicity result in the data set with HepG2 is “not cytotoxic”. In addition, in the data set on Huh7, the cytotoxicity entry is reported as “not cytotoxic”. Moreover, in the data set with A549, the cytotoxicity entry was “not cytotoxic”. In the data set with M. tuberculosis H37Rv [1] (setting [7]), the MIC came to 0.5 µg/mL (≈ 1.91 µM). Moreover, the MIC in the data set on M. tuberculosis H37Rv [1] (setting [8]) was found to be 0.5 µg/mL (≈ 1.91 µM). Besides, the MIC in the data set on M. tuberculosis H37Rv [1] (setting [9]) worked out at 0.5 µg/mL (≈ 1.91 µM). Further, the MIC with M. tuberculosis H37Rv [1] (setting [10]) stood at 0.5 µg/mL (≈ 1.91 µM). In the data set on M. tuberculosis H37Rv [1] (setting [11]), the MIC was 0.5 µg/mL (≈ 1.91 µM). In data set [4], the concentration for half-maximal inhibition (IC50) is 0.625 µg/mL (≈ 2.38 µM) and the IC90 was 1.25 µg/mL (≈ 4.77 µM). Moreover, in [5], the half-inhibitory concentration (IC50) is 2.5 µg/mL (≈ 9.53 µM) and the 90% effect concentration (IC90) worked out at 10 µg/mL (≈ 38.1 µM).

Turning to `Cc1ccc(C(=O)O)s1` [compound 11326028, 5-methylthiophene-2-carboxylic acid], the MIC with M. tuberculosis H37Rv [1] (Figure 5, H37Rv) was found to be 0.128 µg/mL (≈ 0.9 µM); with M. tuberculosis H37Rv [1] (setting [7]) it was 0.125 µg/mL (≈ 0.879 µM); in the data set on M. tuberculosis H37Rv [1] (setting [11]) it was 0.128 µg/mL (≈ 0.9 µM).

`COc1ccc(NC(=O)c2cc([N+](=O)[O-])c(C)s2)cc1OC` [compound 11326054] returned a melting point of 200 to 202 °C. Further, on EthA [3], the “kcat (compound as EthA substrate)” value was 0.0163 ± 0.0005 s⁻¹. For the same compound, in the data set on M. tuberculosis H37Rv [1] (setting [7]), the MIC was 0.25 µg/mL (≈ 0.776 µM). Further, in the data set with M. tuberculosis H37Rv [1] (setting [11]), the MIC came to 0.25 µg/mL (≈ 0.776 µM).

For the compound `CC1=CC=C(C(=O)Nc2ccc([N+](=O)[O-])cc2)S1(=O)=O` [compound 11426026], the MIC with M. tuberculosis H37Ra amounted to 4 µg/mL (≈ 13.6 µM); in the data set on M. tuberculosis H37Rv [1] (setting [10]), 1 µg/mL (≈ 3.4 µM); with M. tuberculosis H37Rv [1] (Mycobacterium tuberculosis, H37RV, Table S5, read-out: H37Rv MIC), 1 µg/mL (≈ 3.4 µM). In addition, the “% inhibition of wild-type PyrG” value on wild-type PyrG was 83.6 ± 3.8%. Moreover, the “effect on PyrG enzymatic activity” value on wild-type PyrG is “inhibit; also recorded: higher degree of inhibition”.

For `CC(=O)Cc1ccccc1` [phenylacetone], the Km at EthA [2] (comparison values, ref Fraaije et al., 2004) is 60 µM. Moreover, the “kcat (EthA substrate)” value on EthA [2] (ref Fraaije et al., 2004) is 0.027 s⁻¹.
